Measured values published in patent publication US10757944B2, “Ozone treatment for elimination of pathogens” (priority 2016, dated 2020).
“And” between values parts separate entries of the source, which are not always exact repeats. Identical values can stand only once.

Tests used:
Assay type in all cases: cell-based
Escherichia Coli = experiment: Gaseous ozone treatment of Cannabis inoculated with E. Coli, microbial count
Experimental: (§1) Cannabis plants were individually contaminated with Escherichia Coli, Salmonella enterica sv typhimurium, Listeria monocytogenes and Candida albicans then exposed to gaseous ozone for 20 minutes at 100 ppm and 200 ppm.
Pure cultures of Escherichia coli and Listeria monocytogenes provided by the American Type Culture Collection (ATCC) were grown in selective media broths. The Candida albicans provided by ATCC was grown on potato dextrose agar, and after significant growth was achieved, the colonies were transferred and suspended in Butterfield's buffer. After significant turbidity in each broth of pathogens was observed, they, along with Butterfield's buffer with the suspended Candida albicans, were used to inoculate individual Cannabis samples. […]
Three samples for each organism were tested at each of the concentrations. […] All samples were then analyzed for their microbial counts by first generating serial dilution using Butterfield's buffer as the diluent for each sample then individually plating the resultant dilutions onto selective media appropriate for the organism being analyzed. After the required incubation temperatures and times were completed, the organisms on the plates were counted. For each set of dilutions of a given sample and starting at the plate representing the lowest dilution ratio, the first plate that was countable was counted and the result was recorded. […]

[1] = tested on: Salmonella enterica sv typhimurium; experiment: Gaseous ozone treatment of Cannabis inoculated with Salmonella, microbial count; details: for kill of bacterial pathogen (in words): 20 minutes; for Microbial Count: 20 min
Experimental: as §1
(§2) Pure cultures of Escherichia coli and Listeria monocytogenes provided by the American Type Culture Collection (ATCC) were grown in selective media broths. The Candida albicans provided by ATCC was grown on potato dextrose agar, and after significant growth was achieved, the colonies were transferred and suspended in Butterfield's buffer. After significant turbidity in each broth of pathogens was observed, they, along with Butterfield's buffer with the suspended Candida albicans, were used to inoculate individual Cannabis samples. This process created four individual populations of Cannabis with each population being contaminated with one of the four organisms grown. After inoculating the samples they were allowed to dry overnight by placing them out in the open at room temperature. Each population of Cannabis was then divided into smaller individual 2-4 gram samples which were used in the tests. One test consisted of placing nearly half of the smaller samples into an ozone gas chamber for 20 minutes at an approximate ozone concentration of 100 ppm. The remaining samples were set aside to be used as controls.
(§3) Three samples for each organism were tested at each of the concentrations. The control samples were placed into the same chamber for 20 minutes with an ozone concentration of 0 ppm. All samples were then analyzed for their microbial counts by first generating serial dilution using Butterfield's buffer as the diluent for each sample then individually plating the resultant dilutions onto selective media appropriate for the organism being analyzed. After the required incubation temperatures and times were completed, the organisms on the plates were counted. For each set of dilutions of a given sample and starting at the plate representing the lowest dilution ratio, the first plate that was countable was counted and the result was recorded.
(§4) Testing occurred over two days. The first day involved testing one sample of Cannabis for each organism at an ozone concentration of 100 ppm and another test of only Listeria at 50 ppm. Additional testing involving subsequent trials for each organism at ozone concentrations of 100 ppm and 200 ppm were conducted on the second day of testing.
(§5) The ozone concentration in the ozone chamber was kept at a range approximating the desired 100 ppm and 200 ppm concentrations. For instance, when the desired concentration was 100 ppm, the actual range of concentrations was 98 ppm to 106 ppm, and when the desired concentration was 200 ppm, the actual range of concentration was 198 ppm to 204 ppm. […]

Listeria monocytogenes = experiment: Gaseous ozone treatment of Cannabis inoculated with Listeria, microbial count; details: for kill of bacterial pathogen (in words): 20 minutes
Experimental: as §1, §2, §3, §4
The ozone concentration in the ozone chamber was kept at a range approximating the desired 100 ppm and 200 ppm concentrations. For instance, when the desired concentration was 100 ppm, the actual range of concentrations was 98 ppm to 106 ppm, and when the desired concentration was 200 ppm, the actual range of concentration was 198 ppm to 204 ppm. While the samples were being placed into the chamber ozone gas was lost.

Candida albicans = experiment: Gaseous ozone treatment of Cannabis inoculated with Candida, microbial count; details: for Microbial Count: 20 min
Experimental: as §1, §2, §3, §4, §5

[2] = tested on: Escherichia Coli, Salmonella enterica sv typhimurium, Listeria monocytogenes and Candida albicans; experiment: Gaseous ozone treatment of inoculated Cannabis, summary statements for all organisms
Experimental: as §1, §2
as §3, with “recorded. […]” for “recorded.”

total yeast and mold = experiment: Total yeast and mold on homogenized cannabis flower after ozone exposure (3M Petrifilm Rapid Yeast and Mold Count Plate); details: for Average CFU/g (all samples tested) of yeast and mold remaining: 0 minutes: 68,000
Experimental: The ability of ozone to reduce fungus using an embodiment of a disclosed pathogen reduction device was also evaluated. In this series of experiments, homogenized cannabis flower with a total yeast and mold bio-burden exceeding 10,000 CFU/g was exposed to ozone using an embodiment of a disclosed pathogen reduction device. 20 gram samples of the cannabis flower were separated into two groups (10 grams a group) and placed on different racks within the pathogen reduction device. One 10 gram sample was placed on an industrial grade aluminum rack with air holes in order to maximize ozone flow and increase the surface area of the flower that would be exposed to ozone. A second 10 gram sample was place directly onto a rack screen (aluminum foil with holes pocked into it); however, because some of the homogenized cannabis flower was finer than the rack screen, some flower from the second 10 gram sample passed through the rack screen and landed on the lowest mesh screen in the device, thereby, creating a third sample for testing.
20 gram samples as described above were exposed to ozone for 0 minutes (control), 20 minutes, 30 minutes, 45 minutes, and 60 minutes at an ozone concentration of 200 ppm. Six 1 gram samples from each treatment time were processed and evaluated using a 3M® Petrifilm® Rapid Yeast and Mold Count Plate and accompanying Product Instructions. The ozone treated samples were homogenized, diluted with buffer (distilled water), and then 1 milliliter suspension samples were dispensed onto 3M® Petrifilm® Rapid Yeast and Mold Count Plates. The plates were incubated at 27° C. for greater than 60 hours in order to quantify the total yeast and mold remaining on the cannabis flower following exposure to ozone. Three of the six 1 gram samples were taken from the flower placed on the industrial grade aluminum rack as detailed above. Two of the 1 gram samples were taken from the flower placed directly on the screen. The final 1 gram sample was collected from the lowest mesh screen in the device where the finest flower collected after falling through the rack screen.

CFUs on cannabis flower = experiment: Exposure of cannabis flower to 200 ppm ozone, CFU reduction; details: between about 20 minutes and 90 minutes
[3] = 100 ppm ozone, compared with 200 ppm

Compound: O=[O+][O-] [ozone]
- kill of Escherichia coli (in words) (Escherichia Coli; both 100 ppm and 200 ppm ozone, 20 minutes): significantly vulnerable
- Microbial Count (Escherichia Coli; first day, target ozone 100 ppm (actual 95-102 ppm), 20 min, control (0 ppm) 1.2 * 10^11): 2.8 * 10^10 cfu/g
- kill of bacterial pathogen (in words) [1, 3]: lesser kill rate
- kill of bacterial pathogen (in words) ([1]; 200 ppm ozone): Significant kills
- Microbial Count ([1]; first day, target ozone 100 ppm (actual 95-102 ppm), control (0 ppm) 1.1 * 10^11): 1.7 * 10^10 cfu/g
- Microbial Count ([1]; second day, ozone 100 ppm (98-106 ppm), Trials 2-3, control 4.5 * 10^4): 1.1 * 10^4 cfu/g and 1.3 * 10^4 cfu/g
- difference between the control and the treated sample (in words) (Listeria monocytogenes; 50 ppm ozone, 20 min, first day): no statistically significant difference
- kill of bacterial pathogen (in words) (Listeria monocytogenes; [3]): lesser kill rate
- kill of bacterial pathogen (in words) (Listeria monocytogenes; 200 ppm ozone): Significant kills
- Microbial Count (Listeria monocytogenes; first day, target ozone 50 ppm (actual 46-52 ppm), 20 min, control (0 ppm) 7.0 * 10^2): 2.6 * 10^2 cfu/g
- Microbial Count (Listeria monocytogenes; first day, target ozone 100 ppm (actual 95-102 ppm), 20 min, control (0 ppm) 1.9 * 10^7): 4.8 * 10^5 cfu/g
- Microbial Count (Listeria monocytogenes; second day, ozone 100 ppm (98-106 ppm), 20 min, Trials 2-3, control 2.0 * 10^4): 2.0 * 10^3 cfu/g and 1.0 * 10^3 cfu/g
- effect of ozone treatment on Candida albicans (in words) (Candida albicans; 100 ppm and 200 ppm ozone, 20 minutes): limited
- microbial count of 200 ppm trials compared with the control group (in words) (Candida albicans; 200 ppm ozone, 20 minutes, FIG. 10): average reduced microbial count
- Microbial Count (Candida albicans; listed as 'Mold Treated', first day, target ozone 100 ppm (actual 95-102 ppm), Mold Control (0 ppm) 1.4 * 10^12): 1.9 * 10^11 cfu/g
- Microbial Count (Candida albicans; second day, ozone 100 ppm (98-106 ppm), Trials 2-3, control 5.0 * 10^5): 2.7 * 10^5 cfu/g and 1.5 * 10^4 cfu/g
- kill of all of the organisms involved in the test (in words) ([2]; 100 ppm ozone, first day (Table 1)): significant kill
- kill of all organisms compared to the controls (in words) ([2]; 100 ppm ozone, second day (Table 2)): significant kill
- kills at 200 ppm compared to the kills at 100 ppm (in words) ([2]; 200 ppm ozone, second day (Table 2)): amount of kills increased
- decrease in total yeast and mold bio-burden (total yeast and mold; 200 ppm ozone for 60 minutes): 92%
- average Colony Forming Units/gram after treatment (total yeast and mold; 200 ppm ozone for 60 minutes, dropping from an average of 82,000 CFU/g): 7,000 CFR/g
- Average CFU/g (all samples tested) of yeast and mold remaining (total yeast and mold; 200 ppm ozone, 20 minutes): 18,000 CFU/g
- CFU/g (Test 1) (total yeast and mold; 200 ppm ozone, 20 minutes, Industrial grade aluminum rack (samples 4-6), T0: 25,000, 60,000, 82,000): 19,000 CFU/g and 12,000 CFU/g and 21,000 CFU/g
- CFU/g (Test 2) (total yeast and mold; 200 ppm ozone, 20 minutes, Industrial grade aluminum rack (samples 4-6), T0: 53,000, 140,000, 130,000): 23,000 CFU/g and 18,000 CFU/g and 21,000 CFU/g
- CFU/g (Test 2) (total yeast and mold; 200 ppm ozone, 20 minutes, Lowest mesh screen (sample 1), T0: 61,000): 24,000 CFU/g
- CFU/g (Test 1) (total yeast and mold; 200 ppm ozone, 20 minutes, Lowest mesh screen (sample 1), T0: 77,000): 18,000 CFU/g
- CFU/g (Test 2) (total yeast and mold; 200 ppm ozone, 20 minutes, Rack screen (samples 2-3), T0: 28,000, 77,000): 16,000 CFU/g and 17,000 CFU/g
- CFU/g (Test 1) (total yeast and mold; 200 ppm ozone, 20 minutes, Rack screen (samples 2-3), T0: 30,000, 50,000): 15,000 CFU/g
- Average CFU/g (all samples tested) of yeast and mold remaining (total yeast and mold; 200 ppm ozone, 30 minutes): 17,000 CFU/g
- CFU/g (Test 1) (total yeast and mold; 200 ppm ozone, 30 minutes, Industrial grade aluminum rack (samples 4-6), T0: 25,000, 60,000, 82,000): 16,000 CFU/g and 11,000 CFU/g and 20,000 CFU/g
- CFU/g (Test 2) (total yeast and mold; 200 ppm ozone, 30 minutes, Industrial grade aluminum rack (samples 4-6), T0: 53,000, 140,000, 130,000): 15,000 CFU/g and 14,000 CFU/g and 20,000 CFU/g
- CFU/g (Test 2) (total yeast and mold; 200 ppm ozone, 30 minutes, Lowest mesh screen (sample 1), T0: 61,000): 20,000 CFU/g
- CFU/g (Test 1) (total yeast and mold; 200 ppm ozone, 30 minutes, Lowest mesh screen (sample 1), T0: 77,000): 16,000 CFU/g
- CFU/g (Test 2) (total yeast and mold; 200 ppm ozone, 30 minutes, Rack screen (samples 2-3), T0: 28,000, 77,000): 30,000 CFU/g and 16,000 CFU/g
- CFU/g (Test 1) (total yeast and mold; 200 ppm ozone, 30 minutes, Rack screen (samples 2-3), T0: 30,000, 50,000): 18,000 CFU/g and 13,000 CFU/g
- Average CFU/g (all samples tested) of yeast and mold remaining (total yeast and mold; 200 ppm ozone, 45 minutes): 16,000 CFU/g
- CFU/g (Test 2) (total yeast and mold; 200 ppm ozone, 45 minutes, Lowest mesh screen (sample 1), T0: 61,000): 11,000 CFU/g
- CFU/g (Test 1) (total yeast and mold; 200 ppm ozone, 45 minutes, Lowest mesh screen (sample 1), T0: 77,000): 7,100 CFU/g
- CFU/g (Test 2) (total yeast and mold; 200 ppm ozone, 45 minutes, Rack screen (samples 2-3), T0: 28,000, 77,000): 15,000 CFU/g and 12,000 CFU/g
- CFU/g (Test 1) (total yeast and mold; 200 ppm ozone, 45 minutes, Rack screen (samples 2-3), T0: 30,000, 50,000): 13,000 CFU/g and 11,000 CFU/g
- Average CFU/g (all samples tested) of yeast and mold remaining (total yeast and mold; 200 ppm ozone, 60 minutes): 6,000 CFU/g
- CFU/g (Test 2) (total yeast and mold; 200 ppm ozone, 60 minutes, Lowest mesh screen (sample 1), T0: 61,000): 9,000 CFU/g
- CFU/g (Test 1) (total yeast and mold; 200 ppm ozone, 60 minutes, Lowest mesh screen (sample 1), T0: 77,000): 7,400 CFU/g
- CFU/g (Test 2) (total yeast and mold; 200 ppm ozone, 60 minutes, Rack screen (samples 2-3), T0: 28,000, 77,000): 10,000 CFU/g and 6,300 CFU/g
- CFU/g (Test 1) (total yeast and mold; 200 ppm ozone, 60 minutes, Rack screen (samples 2-3), T0: 30,000, 50,000): 6,000 CFU/g and 7,800 CFU/g
- additional reduction in CFU/g (total yeast and mold; 200 ppm ozone, after the first 20 minutes and up until 45 minutes): 1.1%
- another reduction in CFU/g (total yeast and mold; 200 ppm ozone, between a 45 minute and 60 minute exposure): 14.1%
- yeast and mold across all 6 samples following treatment (total yeast and mold; 200 ppm ozone, from roughly 10^5 CFU/g): below 10,000 CFU/g
- inhibition of fungi by ozone exposure (in words) (total yeast and mold; Table 4, 200 ppm ozone, 20-60 minutes): strongly inhibited
- reduction of CFUs (CFUs on cannabis flower): 100,000 to 150,000 CFUs per hour
